Laboratory results: PubChem BioAssay AID1259407 (Chemical Carcinogenesis Research Information System (CCRIS), 2018)
“Also recorded” adds a separate entry of the source. The source made the active and inactive calls. No rule for the calls is given here.

Tested on: CCRIS mutagenicity, Ames/micronucleus/aberration tests
Assay: CCRIS mutagenicity studies
[1] = Test System: AMES SALMONELLA TYPHIMURIUM, Strain/Indicator: TA98, Metabolic Activation: NONE, Method: STANDARD PLATE
[2] = Test System: AMES SALMONELLA TYPHIMURIUM, Strain/Indicator: TA100, Metabolic Activation: NONE, Method: STANDARD PLATE

## O=C(Nc1cc(Cl)cc(Cl)c1O)c1c(O)c(Cl)cc(Cl)c1Cl
[1]
  mutagenic call: inactive; negative
Test System: AMES SALMONELLA TYPHIMURIUM, Strain/Indicator: TA98, Metabolic Activation: RAT, LIVER, S-9, KANECHLOR 400, Method: STANDARD PLATE
  mutagenic call: inactive; negative
[2]
  mutagenic call: inactive; negative
Test System: AMES SALMONELLA TYPHIMURIUM, Strain/Indicator: TA100, Metabolic Activation: RAT, LIVER, S-9, KANECHLOR 400, Method: STANDARD PLATE
  mutagenic call: inactive; negative
Test System: AMES SALMONELLA TYPHIMURIUM, Strain/Indicator: TA1535, Metabolic Activation: NONE, Method: STANDARD PLATE
  mutagenic call: inactive; negative
Test System: AMES SALMONELLA TYPHIMURIUM, Strain/Indicator: TA1535, Metabolic Activation: RAT, LIVER, S-9, KANECHLOR 400, Method: STANDARD PLATE
  mutagenic call: inactive; negative
Test System: AMES SALMONELLA TYPHIMURIUM, Strain/Indicator: TA1537, Metabolic Activation: NONE, Method: STANDARD PLATE
  mutagenic call: inactive; negative
Test System: AMES SALMONELLA TYPHIMURIUM, Strain/Indicator: TA1537, Metabolic Activation: RAT, LIVER, S-9, KANECHLOR 400, Method: STANDARD PLATE
  mutagenic call: inactive; negative
Test System: AMES SALMONELLA TYPHIMURIUM, Strain/Indicator: TA1538, Metabolic Activation: NONE, Method: STANDARD PLATE
  mutagenic call: inactive; negative
Test System: AMES SALMONELLA TYPHIMURIUM, Strain/Indicator: TA1538, Metabolic Activation: RAT, LIVER, S-9, KANECHLOR 400, Method: STANDARD PLATE
  mutagenic call: inactive; negative

## Nc1ccc(Oc2ccc(N)cc2)cc1
End Point: IN VITRO CHROMOSOMAL ABERRATIONS, Test System: CHL CELLS, Metabolic Activation: NONE
  mutagenic call: active; positive (structural changes); precipitation occurred at 1.3 and 5.0 mg/ml; also recorded: active; positive (structural changes); precipitation occurred at 1.7 and 5.0 mg/ml
End Point: IN VITRO CHROMOSOMAL ABERRATIONS, Test System: CHL CELLS, Metabolic Activation: RAT, LIVER, S-9, SODIUM PHENOBARBITAL AND 5,6-BENZOFLAVONE
  mutagenic call: active; positive (structural changes); precipitation occurred at 1.7 mg/ml
End Point: IN VITRO CHROMOSOMAL ABERRATIONS, Test System: CHO CELLS, Metabolic Activation: RAT, LIVER, S-9, AROCLOR 1254
  mutagenic call: active; positive; precipitation occurred at 1600 and 5000 ug/ml; also recorded: active; positive; precipitation occurred at 2000, 3000, 4000 and 5000 ug/ml
Test System: AMES SALMONELLA TYPHIMURIUM, Strain/Indicator: TA97, Metabolic Activation: HAMSTER, LIVER, S-9, AROCLOR 1254 (10%), Method: PREINCUBATION
  mutagenic call: active; positive
Test System: AMES SALMONELLA TYPHIMURIUM, Strain/Indicator: TA97, Metabolic Activation: NONE, Method: PREINCUBATION
  mutagenic call: inactive; negative
Test System: AMES SALMONELLA TYPHIMURIUM, Strain/Indicator: TA97, Metabolic Activation: RAT, LIVER, S-9, AROCLOR 1254 (10%), Method: PREINCUBATION
  mutagenic call: active; positive
Test System: AMES SALMONELLA TYPHIMURIUM, Strain/Indicator: TA98, Metabolic Activation: HAMSTER, LIVER, S-9, AROCLOR 1254 (10%), Method: PREINCUBATION
  mutagenic call: active; positive
Test System: AMES SALMONELLA TYPHIMURIUM, Strain/Indicator: TA98, Metabolic Activation: NONE, Method: FLUCTUATION (MICROTITER)
  mutagenic call: inactive; negative
[1]
  mutagenic call: inactive; negative
Test System: AMES SALMONELLA TYPHIMURIUM, Strain/Indicator: TA98, Metabolic Activation: RAT LIVER S-9, PHENOBARBITAL AND BETA-NAPHTHOFLAVONE, Method: PREINCUBATION
  mutagenic call: active; positive
Test System: AMES SALMONELLA TYPHIMURIUM, Strain/Indicator: TA98, Metabolic Activation: RAT, LIVER, S-9, AROCLOR 1254 (10%), Method: PREINCUBATION
  mutagenic call: active; positive
Test System: AMES SALMONELLA TYPHIMURIUM, Strain/Indicator: TA98, Metabolic Activation: RAT, LIVER, S-9, PCB, Method: PREINCUBATION
  mutagenic call: active; positive
Test System: AMES SALMONELLA TYPHIMURIUM, Strain/Indicator: TA98, Metabolic Activation: RAT, LIVER, S-9, PCB, Method: STANDARD PLATE
  mutagenic call: active; positive
Test System: AMES SALMONELLA TYPHIMURIUM, Strain/Indicator: TA100, Metabolic Activation: HAMSTER, LIVER, S-9, AROCLOR 1254 (10%), Method: PREINCUBATION
  mutagenic call: active; positive
[2]
  mutagenic call: inactive; negative
Test System: AMES SALMONELLA TYPHIMURIUM, Strain/Indicator: TA100, Metabolic Activation: RAT LIVER S-9, PHENOBARBITAL AND BETA-NAPHTHOFLAVONE, Method: PREINCUBATION
  mutagenic call: active; positive
Test System: AMES SALMONELLA TYPHIMURIUM, Strain/Indicator: TA100, Metabolic Activation: RAT, LIVER, S-9, AROCLOR 1254 (10%), Method: PREINCUBATION
  mutagenic call: active; positive
Test System: AMES SALMONELLA TYPHIMURIUM, Strain/Indicator: TA100, Metabolic Activation: RAT, LIVER, S-9, PCB, Method: PREINCUBATION
  mutagenic call: active; positive
Test System: AMES SALMONELLA TYPHIMURIUM, Strain/Indicator: TA100, Metabolic Activation: RAT, LIVER, S-9, PCB, Method: STANDARD PLATE
  mutagenic call: active; positive
Test System: AMES SALMONELLA TYPHIMURIUM, Strain/Indicator: TA1535, Metabolic Activation: HAMSTER, LIVER, S-9, AROCLOR 1254 (10%), Method: PREINCUBATION
  mutagenic call: active; positive
Test System: AMES SALMONELLA TYPHIMURIUM, Strain/Indicator: TA1535, Metabolic Activation: NONE, Method: PREINCUBATION
  mutagenic call: inactive; negative
Test System: AMES SALMONELLA TYPHIMURIUM, Strain/Indicator: TA1535, Metabolic Activation: RAT LIVER S-9, PHENOBARBITAL AND BETA-NAPHTHOFLAVONE, Method: PREINCUBATION
  mutagenic call: inactive; negative
Test System: AMES SALMONELLA TYPHIMURIUM, Strain/Indicator: TA1535, Metabolic Activation: RAT, LIVER, S-9, AROCLOR 1254 (10%), Method: PREINCUBATION
  mutagenic call: inactive; negative
Test System: AMES SALMONELLA TYPHIMURIUM, Strain/Indicator: TA1537, Metabolic Activation: HAMSTER, LIVER, S-9, AROCLOR 1254 (10%), Method: PREINCUBATION
  mutagenic call: active; positive
Test System: AMES SALMONELLA TYPHIMURIUM, Strain/Indicator: TA1537, Metabolic Activation: NONE, Method: FLUCTUATION (MICROTITER)
  mutagenic call: inactive; negative
Test System: AMES SALMONELLA TYPHIMURIUM, Strain/Indicator: TA1537, Metabolic Activation: NONE, Method: PREINCUBATION
  mutagenic call: inactive; negative
Test System: AMES SALMONELLA TYPHIMURIUM, Strain/Indicator: TA1537, Metabolic Activation: RAT LIVER S-9, PHENOBARBITAL AND BETA-NAPHTHOFLAVONE, Method: PREINCUBATION
  mutagenic call: inactive; negative
Test System: AMES SALMONELLA TYPHIMURIUM, Strain/Indicator: TA1537, Metabolic Activation: RAT, LIVER, S-9, AROCLOR 1254 (10%), Method: PREINCUBATION
  mutagenic call: inactive; negative
Test System: AMES SALMONELLA TYPHIMURIUM, Strain/Indicator: TA7001, Metabolic Activation: NONE, Method: FLUCTUATION (MICROTITER)
  mutagenic call: inactive; negative
Test System: AMES SALMONELLA TYPHIMURIUM, Strain/Indicator: TA7002, Metabolic Activation: NONE, Method: FLUCTUATION (MICROTITER)
  mutagenic call: inactive; negative
Test System: AMES SALMONELLA TYPHIMURIUM, Strain/Indicator: TA7003, Metabolic Activation: NONE, Method: FLUCTUATION (MICROTITER)
  mutagenic call: inactive; negative
Test System: AMES SALMONELLA TYPHIMURIUM, Strain/Indicator: TA7004, Metabolic Activation: NONE, Method: FLUCTUATION (MICROTITER)
  mutagenic call: inactive; negative
Test System: AMES SALMONELLA TYPHIMURIUM, Strain/Indicator: TA7005, Metabolic Activation: NONE, Method: FLUCTUATION (MICROTITER)
  mutagenic call: active; positive
Test System: AMES SALMONELLA TYPHIMURIUM, Strain/Indicator: TA7006, Metabolic Activation: NONE, Method: FLUCTUATION (MICROTITER)
  mutagenic call: inactive; negative
Test System: E.COLI, Strain/Indicator: WP2UVRA, Metabolic Activation: NONE, Method: PREINCUBATION
  mutagenic call: inactive; negative
Test System: E.COLI, Strain/Indicator: WP2UVRA, Metabolic Activation: RAT LIVER S-9, PHENOBARBITAL AND BETA-NAPHTHOFLAVONE, Method: PREINCUBATION
  mutagenic call: inactive; negative
